Results: BindingDB's records for patent US11903936 (University of Texas, 2024)
pEC50: −log10 of the molar value.

Target: T1, Dihydroorotate dehydrogenase (quinone), mitochondrial (Plasmodium falciparum (isolate 3D7), UniProt Q08210)
T1 sequence (Q08210 whole entry): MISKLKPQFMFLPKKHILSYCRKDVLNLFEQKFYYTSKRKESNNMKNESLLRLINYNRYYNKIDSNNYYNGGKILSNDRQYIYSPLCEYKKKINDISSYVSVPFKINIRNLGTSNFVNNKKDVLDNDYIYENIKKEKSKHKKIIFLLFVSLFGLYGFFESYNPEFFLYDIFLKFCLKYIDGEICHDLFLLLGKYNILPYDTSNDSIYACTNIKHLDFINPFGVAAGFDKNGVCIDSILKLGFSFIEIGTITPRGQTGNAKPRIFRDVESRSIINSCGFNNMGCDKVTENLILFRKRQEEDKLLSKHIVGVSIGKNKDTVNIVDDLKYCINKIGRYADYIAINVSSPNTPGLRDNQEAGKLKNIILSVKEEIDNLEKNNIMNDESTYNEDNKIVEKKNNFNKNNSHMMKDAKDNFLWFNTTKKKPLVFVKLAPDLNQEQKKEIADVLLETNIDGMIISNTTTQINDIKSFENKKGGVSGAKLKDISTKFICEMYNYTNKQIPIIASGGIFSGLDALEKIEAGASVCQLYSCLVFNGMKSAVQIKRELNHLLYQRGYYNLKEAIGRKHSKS
Test: P. falciparum growth and inhibition assays

pEC50: 7.41
SMILES: Cc1c(Cc2ccc(C(F)(F)F)c(F)c2)c[nH]c1C(=O)NC(C)c1nc[nH]n1 (stereo unspecified) [US11903936, Compound 5]
